“Also recorded” adds a separate entry of the source.
Assays:
[1] = Spectral property comparison (excitation and emission wavelength) of indicator acids; assay type: physicochemical
Text: The red-shift excitation and emission wavelengths provide a great advantage for the use of current invention in the high throughput screening of new drug candidates since there are many fluorescent compounds of short wavelength in the screening compound libraries. Fluo-3 AM and Fluo-4 AM are currently used in the high throughput screening of new drug candidates, but their short wavelength overlap with the fluorescence of some fluorescent compounds in the screening compound libraries, causing severe interference.

CHO cells = test: Cell-induced absorption spectral shift of indicator AM esters, absence vs presence of CHO cells; assay type: cell-based; details: for Cell-Induced Excitation Wavelength Shift (nm): absence vs presence of CHO cells
Text: FIG. 7. The cell-induced absorption spectral shift comparison of Fluo-3 AM and Compound 16. The absorption spectra are normalized at their maximum absorption peak. Solid lines represent the absorption spectra of Compound 16 in the absence of CHO cells (left) and in the presence of CHO cells (right) respectively. Dot lines represent the absorption spectra of Fluo-3 AM in the absence of CHO cells (left) and in the presence of CHO cells (right) respectively.
FIG. 8. The cell-induced absorption spectral shift comparison of Fluo-4 AM and Compound 85. The absorption spectra are normalized at their maximum absorption peak. Solid lines represent the absorption spectra of Compound 85 in the absence of CHO cells (left) and in the presence of CHO cells (right) respectively. Dot lines represent the absorption spectra of Fluo-4 AM in the absence of CHO cells (left) and in the presence of CHO cells (right) respectively.
Fluo-3 AM and Fluo-4 AM are predominantly used for monitoring intracellular calcium signal. However, Fluo-3 AM, Fluo-4 AM and their cell-hydrolyzed products (Fluo-3 and Fluo-4) can be simultaneously excited by the same excitation source (see FIGS. 7 and 8), causing high assay background. The present application is directed to a family of fluorescent dyes that are useful for preparing fluorescent metal ion indicators. The indicators include a carbofluorescein lactone fluorophore that is incorporated with an ionophore, and are useful for the detection, discrimination and quantification of metal cations.
In one aspect of the invention, the disclosed calcium indicators have the minimal assay background in their masked form since their non-hydrolyzed AM esters cannot be excited in the range of visible wavelengths. […] The fluorescence outside cells generates the detrimental assay background. It is evident that the calcium indicators of the invention (e.g., Compound 16) have unexpected spectral properties that enable more sensitive detection of calcium in cells compared to the existing fluorescein-based calcium indicators (such as Fluo-3 AM).
It is evident that the calcium indicators of the invention (e.g., Compound 85) have unexpected spectral properties that enable more sensitive detection of calcium in cells compared to the existing fluorescein-based calcium indicators (such as Fluo-4 AM).

[2] = Calcium response of indicator measured in fluorescence excitation/emission in PBS buffer; assay type: binding; details: 5 μM in PBS buffer, excited at 555 nm
Experimental: FIG. 5. Calcium responses of Compound 79 (5 μM) measured in fluorescence excitation in PBS buffer solution. The calcium concentrations are indicated in the graph in the unit of μM.
FIG. 6. Calcium responses of Compound 79 (5 μM) measured in fluorescence emission in PBS buffer solution. The calcium concentrations are indicated in the graph in the unit of μM.

[3] = test system: CHO cells stably transfected with muscarinic receptor 1; test: Calcium flux assay in cells loaded with indicator AM ester, ATP stimulation, microplate reader or imaging; assay type: cell-based; details: compared with Fluo-4 AM
Experimental: In yet another aspect of the invention, the fluorescent ion indicators are used in a method to measure calcium flux. Cells (e.g., CHO cells) stably transfected with muscarinic receptor 1 are plated—e.g., at 60,000 cells per 100 μl per well in F12 with 5% FBS and 1% glutamine in a 96-well black wall/clear bottom Costar plate—and incubated (e.g., in 5% CO2 at 37° C. overnight). The growth medium is removed and the cells are incubated with a fluorescent ion indicator (e.g., with 100 μl/well of 1-8 μM Fluo-4 AM or Compound 85 in Hanks and HEPES buffer for 1 hour at room temperature) with or without probenecid. […]
Calcium flux assays are preferred methods in drug discovery for screening G protein coupled receptors (GPCR). The fluorescent indicators of the invention provide a homogeneous fluorescence-based assay for detecting the intracellular calcium mobilization. […] When the sample cells are stimulated with screening compounds, the receptor triggers a release of intracellular calcium, which then greatly increases the fluorescence of the intracellular indicators. The combination of long wavelength fluorescence properties, high sensitivity, and often a >100 times increase in fluorescence upon binding with calcium makes the disclosed indicators well-suited for measurement of cellular calcium. […]

| Compound | Emission Wavelength (nm) [1] [nm] | Excitation Wavelength (nm) [1] [nm] | Residual absorption of dye AM at the maximum excitation of dye acid (CHO cells) [%] | Cell-Induced Excitation Wavelength Shift (nm) (CHO cells) | also measured |
| --- | --- | --- | --- | --- | --- |
| Cc1ccc(N(CC(=O)O)CC(=O)O)c(OCCOc2cc(C3=C4C=C(Cl)C(=O)C=C4C(C)(C)c4cc(O)c(Cl)cc43)c(C(=O)O)cc2N(CC(=O)O)CC(=O)O)c1 [Compound 11] | 584 | 558 |  |  |  |
| Cc1ccc(N(CC(=O)O)CC(=O)O)c(OCCOc2cc(C3=C4C=C(F)C(=O)C=C4C(C)(C)c4cc(O)c(F)cc43)c(C(=O)O)cc2N(CC(=O)O)CC(=O)O)c1 [Compound 79] | 582 | 554 |  |  | calcium binding [2]: binds calcium |
| CC(=O)OCOC(=O)CN(CC(=O)OCOC(C)=O)c1ccc(C)cc1OCCOc1cc(-c2c3cc(Cl)c(=O)cc-3oc3cc(OCOC(C)=O)c(Cl)cc23)ccc1N(CC(=O)OCOC(C)=O)CC(=O)OCOC(C)=O [Fluo-3 AM, reference compound] |  |  | 7.6 | 36 | absorption of masked AM form at excitation wavelength (CHO cells; at 488 nm): substantial absorption |
| Cc1ccc(N(CC(=O)O)CC(=O)O)c(OCCOc2cc(-c3c4cc(Cl)c(=O)cc-4oc4cc(O)c(Cl)cc34)ccc2N(CC(=O)O)CC(=O)O)c1 [Fluo-3, reference compound] | 526 | 504 |  |  |  |
| Cc1ccc(N(CC(=O)O)CC(=O)O)c(OCCOc2cc(-c3c4cc(F)c(=O)cc-4oc4cc(O)c(F)cc34)ccc2N(CC(=O)O)CC(=O)O)c1 [Fluo-4, reference compound] | 515 | 493 |  |  |  |

Continued, in another order:

| Emission Wavelength (nm) [1] [nm] | Excitation Wavelength (nm) [1] [nm] | Residual absorption of dye AM at the maximum excitation of dye acid (CHO cells) [%] | Cell-Induced Excitation Wavelength Shift (nm) (CHO cells) | Compound | also measured |
| --- | --- | --- | --- | --- | --- |
|  |  | 0 | 278 | CC(=O)OCOC(=O)CN(CC(=O)OCOC(C)=O)c1ccc(C)cc1OCCOc1cc2c(cc1N(CC(=O)OCOC(C)=O)CC(=O)OCOC(C)=O)C(=O)OC21c2cc(Cl)c(OC(C)=O)cc2C(C)(C)c2cc(OC(C)=O)c(Cl)cc21 [Compound 16] | absorption of masked AM form at excitation wavelength (CHO cells; at 555 nm): essentially no absorption |
|  |  | 0 | 277 | CC(=O)OCOC(=O)CN(CC(=O)OCOC(C)=O)c1ccc(C)cc1OCCOc1cc2c(cc1N(CC(=O)OCOC(C)=O)CC(=O)OCOC(C)=O)C(=O)OC21c2cc(F)c(OC(C)=O)cc2C(C)(C)c2cc(OC(C)=O)c(F)cc21 [Compound 85] | absorption of masked AM form at excitation wavelength (CHO cells; at 555 nm): essentially no absorption; fluorescence intensity enhancement upon calcium stimulation ([3]; absence of probenecid): much greater than that of Fluo-4 AM; also recorded: better fluorescence intensity enhancement upon calcium stimulation than that of Fluo-4 AM; loading into cells [3]: load into cells much better than Fluo-4 AM |
|  |  | 7.8 | 38 | CC(=O)OCOC(=O)CN(CC(=O)OCOC(C)=O)c1ccc(C)cc1OCCOc1cc(-c2c3cc(F)c(=O)cc-3oc3cc(OCOC(C)=O)c(F)cc23)ccc1N(CC(=O)OCOC(C)=O)CC(=O)OCOC(C)=O [Fluo-4 AM, reference compound] | absorption of masked AM form at excitation wavelength (CHO cells; at 488 nm): substantial absorption |

Source: patent US9346778B2, “Carbofluorescein lactone ion indicators and their applications” (AAT Bioquest, Inc., priority 2007, dated 2016)
